In patent US20040198828A1, “Combinational use of long-acting and short-acting anti-histamines for ocular allergies” (priority 2003, published 2004):

Test system: eyes of allergic subjects challenged with allergen solution (birch, cat hair, cat dander)
Test: Conjunctival allergen challenge (CAC), onset of action and duration of action study
Assay type: in vivo, human
Settings: for Mean Differences (Active-Placebo), 15 Min Itching, Timepoint 1 / Mean Differences (Active-Placebo), 15 Min Itching, Timepoint 2 / Mean Differences (Active-Placebo), 15 Min Itching, Timepoint 3 / Mean Differences (Active-Placebo), 15 Min Redness, Timepoint 1 / Mean Differences (Active-Placebo), 15 Min Redness, Timepoint 2 / Mean Differences (Active-Placebo), 15 Min Redness, Timepoint 3: challenge 15 min after one drop; for Mean Differences (Active-Placebo), 16 hr Itching, Timepoint 1 / Mean Differences (Active-Placebo), 16 hr Itching, Timepoint 2 / Mean Differences (Active-Placebo), 16 hr Itching, Timepoint 3 / Mean Differences (Active-Placebo), 16 hr Redness, Timepoint 1 / Mean Differences (Active-Placebo), 16 hr Redness, Timepoint 2 / Mean Differences (Active-Placebo), 16 hr Redness, Timepoint 3: challenge 16 hr after one drop
Protocol: These following studies were performed using the standard conjunctival allergen challenge model as described in Abelson et al., Arch Ophthalmol. 108(1): 84-88 (1990), and Abelson et al., Curr Allergy Asthma Rep. 3(4): 363-8 (2003). Each experiment was a double-masked, contralateral placebo controlled, single center, onset of action and duration of action allergen challenge study.
A baseline ocular exam was performed to rule out any subjects with any ocular surface anomaly that would interfere with evaluations. A bilateral conjunctival allergen challenge was performed with the allergen to which the subject was known to be allergic to as evidenced by a skin test or previous conjunctival allergen challenge.
Subjects were administered one drop of masked study medication in each eye as described in the below tables (see Table 1-3). A period of at least 1 week was left between experiments on each single subject. At the specified timepoints, subjects were challenged bilaterally with one drop of allergen solution (allergen used were birch, cat hair, cat dander) at a concentration that was known to historically elicit a positive response (Abelson et al., Arch Ophthalmol. 108(1): 84-88 (1990)). Phosphate buffered saline (PBS) was used as placebo. A historic positive response to the challenge was defined as at least a +2.0 itching and +2.0 redness on scales 0-4, with 0 being none and 4 being severe.
Subjects were asked to grade their ocular itching on standardized scales described in Abelson et al., Arch Ophthalmol. 108(1): 84-88 (1990), scoring was performed from a scale of 0-4 at 3, 5, and 7 minutes post-challenge. Redness was graded by a masked observer on standardized scales 0-4 at 10, 15, and 20 minutes post-challenge. Digital photographs were taken of each eye at the 15 minute timepoint. If needed, subjects were administered one drop of a currently marketed topical anti-allergic medication (Naphcon A™: pheniramine maleate 0.3%/naphthazoline hydrochloride 0.025% ophthalmic solution) to relieve any immediate discomfort at the end of the visit.
Data from all subjects who completed any post-challenge examination was evaluable for that experiment and treatment. Mean itching and redness scores were compared between the treated eye and placebo eye to determine an efficacy score.

[1] = itching scale 0-4, timepoint 1 of 3, 5, 7 min post-challenge
[2] = itching scale 0-4, timepoint 2 of 3, 5, 7 min post-challenge
[3] = itching scale 0-4, timepoint 3 of 3, 5, 7 min post-challenge
[4] = redness scale 0-4, timepoint 1 of 10, 15, 20 min post-challenge
[5] = redness scale 0-4, timepoint 2 of 10, 15, 20 min post-challenge
[6] = redness scale 0-4, timepoint 3 of 10, 15, 20 min post-challenge

| SMILES | Mean Differences (Active-Placebo), 15 Min Itching, Timepoint 1 [1] | Mean Differences (Active-Placebo), 15 Min Itching, Timepoint 2 [2] | Mean Differences (Active-Placebo), 15 Min Itching, Timepoint 3 [3] | Mean Differences (Active-Placebo), 15 Min Redness, Timepoint 1 [4] | Mean Differences (Active-Placebo), 15 Min Redness, Timepoint 2 [5] | Mean Differences (Active-Placebo), 15 Min Redness, Timepoint 3 [6] | Mean Differences (Active-Placebo), 16 hr Itching, Timepoint 1 [1] | Mean Differences (Active-Placebo), 16 hr Itching, Timepoint 2 [2] | Mean Differences (Active-Placebo), 16 hr Itching, Timepoint 3 [3] | Mean Differences (Active-Placebo), 16 hr Redness, Timepoint 1 [4] | Mean Differences (Active-Placebo), 16 hr Redness, Timepoint 2 [5] | Mean Differences (Active-Placebo), 16 hr Redness, Timepoint 3 [6] | Mean Differences (Active-Placebo), 4 hr Itching, Timepoint 1 (challenge 4 hr after one drop, itching scale 0-4, timepoint 1 of 3, 5, 7 min post-challenge) | Mean Differences (Active-Placebo), 4 hr Itching, Timepoint 2 (challenge 4 hr after one drop, itching scale 0-4, timepoint 2 of 3, 5, 7 min post-challenge) | Mean Differences (Active-Placebo), 4 hr Itching, Timepoint 3 (challenge 4 hr after one drop, itching scale 0-4, timepoint 3 of 3, 5, 7 min post-challenge) | Mean Differences (Active-Placebo), 4 hr Redness, Timepoint 1 (challenge 4 hr after one drop, redness scale 0-4, timepoint 1 of 10, 15, 20 min post-challenge) | Mean Differences (Active-Placebo), 4 hr Redness, Timepoint 2 (challenge 4 hr after one drop, redness scale 0-4, timepoint 2 of 10, 15, 20 min post-challenge) | Mean Differences (Active-Placebo), 4 hr Redness, Timepoint 3 (challenge 4 hr after one drop, redness scale 0-4, timepoint 3 of 10, 15, 20 min post-challenge) |
| --- | --- | --- | --- | --- | --- | --- | --- | --- | --- | --- | --- | --- | --- | --- | --- | --- | --- | --- |
| CN(C)CCC(c1ccccc1)c1ccccn1 (stereo not drawn) [Pheniramine 0.5%, pheniramine] | −2.67 | −2.33 | −2.17 | −1.67 | −1.83 | −1.67 | −0.25 | 0 | 0 | 0.25 | 0.25 | 0.25 |  |  |  |  |  |  |
| CN1CCCC(n2nc(Cc3ccc(Cl)cc3)c3ccccc3c2=O)CC1 (stereo not drawn) [Azelastine 0.05%, azelastine] | −2.5 | −2.5 | −2.5 | 0 | 0 | 0 |  |  |  |  |  |  | −0.5 | −1.0 | −1.0 | +0.5 | +1.0 | +1.0 |
| c1ccc(CN(CC2=NCCN2)c2ccccc2)cc1 [Antazoline 0.5%, antazoline] | −2.33 | −2.83 | −2.5 | −0.83 | −0.83 | −1.00 |  |  |  |  |  |  |  |  |  |  |  |  |
| CN1CCC(=C2c3ccccc3CC(=O)c3sccc32)CC1 [Keto 0.05%, ketotifen] | −2.00 | −2.33 | −2.00 | −1.50 | −1.17 | −1.50 | 0.75 | 0.25 | 0.25 | 0.5 | 0.5 | 0.25 |  |  |  |  |  |  |
